Measured values reported in ChEMBL document CHEMBL5726054, “Substituted bicyclic compounds” (2019).

Target: Sphingosine 1-phosphate receptor 1 (Homo sapiens) (UniProt P21453)
Test: hS1P1 ERK Phosphorylation (S1P1 pERK): hS1P1/CHO cells were plated into BD Amine 384-well plates the day before the assay. On the day of the assay, growth medium was removed and replaced with serum-free medium (Ham's F-12 Invitrogen) and incubated for 2 hours. Test compounds pre-diluted in HBSS (Gibco)/20 mM HEPES (Gibco) were transferred to the cell plates and incubated for 7 minutes at 37° C. …

Sphingosine 1-phosphate receptor 1 (Homo sapiens), sequence (P21453 whole entry, looked up): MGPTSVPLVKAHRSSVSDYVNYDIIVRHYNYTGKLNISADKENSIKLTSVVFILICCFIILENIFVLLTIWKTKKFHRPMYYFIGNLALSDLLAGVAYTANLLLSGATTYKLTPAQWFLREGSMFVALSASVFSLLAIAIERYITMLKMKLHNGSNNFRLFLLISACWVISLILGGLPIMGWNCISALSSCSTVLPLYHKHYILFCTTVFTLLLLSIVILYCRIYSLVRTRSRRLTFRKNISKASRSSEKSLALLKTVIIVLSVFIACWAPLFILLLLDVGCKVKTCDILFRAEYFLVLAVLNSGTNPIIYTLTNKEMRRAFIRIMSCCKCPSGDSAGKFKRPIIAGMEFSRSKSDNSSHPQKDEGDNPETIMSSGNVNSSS

CCCCCC[C@H]1COc2cc([C@H]3CC[C@](N)(COP(=O)(O)O)C3)ccc2C1
EC50: in the range around 55 nM

CCCC/C=C/[C@@H]1CCc2cc([C@H]3CC[C@](N)(COP(=O)(O)O)C3)ccc2C1
EC50: in the range around 55 nM

CCCCCCC1CCc2cc(C3CCC(N)(COP(=O)(O)O)C3)ccc2O1 (stereo not drawn)
EC50: in the range around 55 nM
